Source: PubChem BioAssay AID256 (DTP/NCI, 2004)
Where “and” joins values, the source holds several entries; their conditions need not be identical. Identical values can stand only once. Inconclusive results and toxic doses are left out.

System: CD2F1 mice, L1210 leukemia ip, survival T/C
Assay: NCI In Vivo Anticancer Drug Screen. Data for tumor model L1210 Leukemia (intraperitoneal) in CD2F1 (CDF1) mice
Settings: higher = longer survival
In short: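 Read-out first: treated-group measurement over vehicle-control measurement, expressed as a ratio. Animals bore a transplanted tumor line and were dosed with compound or vehicle.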

[1] = endpoint: mean survival time, dose: 100.0 mg/kg/injection, schedule: Q01DX001 (ip), vehicle: saline with Tween-80
[2] = endpoint: mean survival time, dose: 100.0 mg/kg/injection, schedule: Q04DX002 (ip), vehicle: saline with Tween-80
[3] = endpoint: mean survival time, dose: 200.0 mg/kg/injection, schedule: Q01DX001 (ip), vehicle: saline with Tween-80
[4] = endpoint: mean survival time, dose: 200.0 mg/kg/injection, schedule: Q04DX002 (ip), vehicle: saline with Tween-80
[5] = endpoint: mean survival time, dose: 400.0 mg/kg/injection, schedule: Q01DX001 (ip), vehicle: saline with Tween-80

Question: Which results are given for `Cc1ccc(S(=O)(=O)N=S2CCCC2)cc1`?
Answer: T/C (endpoint: mean survival time, dose: 100.0 mg/kg/injection, schedule: Q04DX003 (ip), vehicle: other): 102 % of control; T/C (endpoint: mean survival time, dose: 200.0 mg/kg/injection, schedule: Q04DX003 (ip), vehicle: other): 106 % of control; T/C (endpoint: mean survival time, dose: 400.0 mg/kg/injection, schedule: Q04DX003 (ip), vehicle: other): 104 % of control

Question: How did the T/C (endpoint: mean survival time, dose: 100.0 mg/kg/injection, schedule: Q01DX009 (ip), vehicle: saline with Tween-80) turn out when `Clc1ccc(COc2ccc(Cl)cc2Cn2ccnc2)c(Cl)c1` was run?
Answer: Its T/C is 101 % of control.

Question: And the T/C (endpoint: mean survival time, dose: 200.0 mg/kg/injection, schedule: Q01DX009 (ip), vehicle: saline with Tween-80)?
Answer: Its T/C is 95 % of control.

Question: What about the T/C (endpoint: mean survival time, dose: 400.0 mg/kg/injection, schedule: Q01DX009 (ip), vehicle: saline with Tween-80) of the same compound?
Answer: Its T/C is 98 % of control.

Question: Which T/C [1] does the source give for `Nc1ncnc2c1ncn2CCC(=O)O` here?
Answer: The T/C was 94 % of control.

Question: And the T/C [2]?
Answer: Its T/C is 105 % of control.

Question: And the T/C [3]?
Answer: The T/C was 92 % of control.

Question: What about the T/C [4] of the same compound?
Answer: The T/C was 97 % of control.

Question: And the T/C [5]?
Answer: Its T/C is 90 % of control.

Question: And the T/C (endpoint: mean survival time, dose: 400.0 mg/kg/injection, schedule: Q04DX002 (ip), vehicle: saline with Tween-80)?
Answer: Its T/C is 105 % of control.

Question: Which T/C (endpoint: median survival time, dose: 50.0 mg/kg/injection, schedule: Q01DX005 (ip), vehicle: Klucel (hydroxypropylcellulose) (HPC)) does the source give for `COC(=O)C1(F)C(=O)NC(=O)NC1OC` (centres undefined) here?
Answer: The T/C was 124 % of control.

Question: And the T/C (endpoint: median survival time, dose: 50.0 mg/kg/injection, schedule: Q01DX005 (ip), vehicle: saline with Tween-80)?
Answer: Its T/C is 124 % of control.

Question: What about the T/C (endpoint: median survival time, dose: 50.0 mg/kg/injection, schedule: Q01DX009 (ip), vehicle: Klucel (hydroxypropylcellulose) (HPC)) of the same compound?
Answer: Its T/C is 121 % of control.

Question: What about the T/C (endpoint: median survival time, dose: 72.0 mg/kg/injection, schedule: Q01DX009 (ip), vehicle: Klucel (hydroxypropylcellulose) (HPC)) of the same compound?
Answer: The T/C was 153 % of control.

Question: What about the T/C (endpoint: median survival time, dose: 100.0 mg/kg/injection, schedule: Q01DX005 (ip), vehicle: saline with Tween-80) of the same compound?
Answer: The T/C was 156 % of control.

Question: What about the T/C (endpoint: median survival time, dose: 100.0 mg/kg/injection, schedule: Q01DX009 (ip), vehicle: Klucel (hydroxypropylcellulose) (HPC)) of the same compound?
Answer: Its T/C is 158 % of control and 176 % of control.

Question: What about the T/C (endpoint: median survival time, dose: 120.0 mg/kg/injection, schedule: Q01DX009 (ip), vehicle: Klucel (hydroxypropylcellulose) (HPC)) of the same compound?
Answer: The T/C was 172 % of control.

Question: And the T/C (endpoint: median survival time, dose: 200.0 mg/kg/injection, schedule: Q01DX005 (ip), vehicle: Klucel (hydroxypropylcellulose) (HPC))?
Answer: Its T/C is 183 % of control.

Question: And the T/C (endpoint: median survival time, dose: 200.0 mg/kg/injection, schedule: Q01DX005 (ip), vehicle: saline with Tween-80)?
Answer: The T/C was 178 % of control.

Question: What about the T/C (endpoint: median survival time, dose: 200.0 mg/kg/injection, schedule: Q01DX009 (ip), vehicle: Klucel (hydroxypropylcellulose) (HPC)) of the same compound?
Answer: Its T/C is 159 % of control and 197 % of control and 238 % of control.

Question: What about the T/C (endpoint: median survival time, dose: 400.0 mg/kg/injection, schedule: Q01DX005 (ip), vehicle: Klucel (hydroxypropylcellulose) (HPC)) of the same compound?
Answer: Its T/C is 185 % of control.

Question: And the T/C (endpoint: median survival time, dose: 400.0 mg/kg/injection, schedule: Q01DX005 (ip), vehicle: saline with Tween-80)?
Answer: Its T/C is 112 % of control.

Question: And the T/C (endpoint: median survival time, dose: 800.0 mg/kg/injection, schedule: Q01DX005 (ip), vehicle: Klucel (hydroxypropylcellulose) (HPC))?
Answer: Its T/C is 104 % of control.

Question: What about the T/C (endpoint: median survival time, dose: 800.0 mg/kg/injection, schedule: Q01DX005 (ip), vehicle: saline with Tween-80) of the same compound?
Answer: The T/C was 109 % of control.

Question: And the T/C (endpoint: median survival time, dose: 800.0 mg/kg/injection, schedule: Q01DX009 (ip), vehicle: Klucel (hydroxypropylcellulose) (HPC))?
Answer: The T/C was 108 % of control.

Question: `CCCS(=O)(=O)CS(=O)(=O)CC` was tested. Which T/C (endpoint: mean survival time, dose: 75.0 mg/kg/injection, schedule: Q01DX001 (ip), vehicle: saline with Tween-80) did it give?
Answer: The T/C was 100 % of control.

Question: And the T/C (endpoint: mean survival time, dose: 150.0 mg/kg/injection, schedule: Q01DX001 (ip), vehicle: saline with Tween-80)?
Answer: The T/C was 92 % of control.

Question: What about the T/C (endpoint: mean survival time, dose: 300.0 mg/kg/injection, schedule: Q01DX001 (ip), vehicle: saline with Tween-80) of the same compound?
Answer: Its T/C is 90 % of control.

Question: What does the source list for `O=C(c1cccnc1)c1cc2ccccc2n1S(=O)(=O)c1ccccc1`?
Answer: T/C [1]: 97 % of control; T/C [3]: 97 % of control; T/C [5]: 97 % of control

Question: With `O=C(C(=C(c1ccccc1)c1ccccc1)N1CCCCC1)c1ccccc1` as the compound, how does the T/C (endpoint: mean survival time, dose: 100.0 mg/kg/injection, schedule: Q04DX003 (ip), vehicle: Klucel (hydroxypropylcellulose) (HPC)) read?
Answer: The T/C was 94 % of control.

Question: What about the T/C (endpoint: mean survival time, dose: 200.0 mg/kg/injection, schedule: Q04DX003 (ip), vehicle: Klucel (hydroxypropylcellulose) (HPC)) of the same compound?
Answer: The T/C was 96 % of control.

Question: What about the T/C (endpoint: mean survival time, dose: 400.0 mg/kg/injection, schedule: Q04DX003 (ip), vehicle: Klucel (hydroxypropylcellulose) (HPC)) of the same compound?
Answer: The T/C was 94 % of control.

Question: With `Cn1c(=O)sc2ccccc21` as the compound, how does the T/C [2] read?
Answer: The T/C was 111 % of control.

Question: And the T/C [4]?
Answer: The T/C was 114 % of control.

Question: For `CCOC(=O)CNc1nc(Cl)nc(NCC(=O)OCC)n1`, which T/C [1] is on record?
Answer: Its T/C is 87 % of control.

Question: What about the T/C [3] of the same compound?
Answer: Its T/C is 89 % of control.

Question: And the T/C [5]?
Answer: Its T/C is 91 % of control.

Question: Which T/C [1] does the source give for `Nc1nc(=O)n(CCCOc2cccc(NC(=O)c3ccccc3)c2)cc1-c1ccc(Cl)c(Cl)c1` here?
Answer: Its T/C is 91 % of control.

Question: What about the T/C [3] of the same compound?
Answer: Its T/C is 94 % of control.

Question: And the T/C [5]?
Answer: Its T/C is 97 % of control.
